Data: US20020137929A1, “1 - (3-heterocyclylphenyl) isothiourea, -isourea, -guanidine and -amidine herbicidal agents” (Intellectual Property Department, BASF Aktiengesellschaft, priority 1998, published 2002)

Experiments:
CASOB (Sicklepod) = experiment: Postemergence herbicidal evaluation; type: in vivo, Cassia obtusifolia; conditions: postemergence
In short: (§1)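 Visual 0-9 injury score (stand, vigor, malformation, size, chlorosis, appearance vs untreated) taken four to five weeks post-spray, averaged across repeat tests. Test plants about two weeks old; foliar spray of acetone/water (1:1) with 0.5% surfactant delivering ~0.0156-0.500 kg active/ha.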

[1] = test system: CHEAL (Lambsquarters, Common); experiment: Postemergence herbicidal evaluation; type: in vivo, Chenopodium album; conditions: postemergence
In short: as §1

ECHCG (Barnyardgrass) = experiment: Postemergence herbicidal evaluation; type: in vivo, Echinochloa crus-galli; conditions: postemergence
In short: as §1

ORYSAT (Rice, Tebonnet) [2] = experiment: Postemergence herbicidal evaluation; type: in vivo, Oryza sativa, (L.) Tebonnet; conditions: postemergence
In short: as §1

GALAP (Galium) = experiment: Preemergence herbicidal evaluation; type: in vivo, Galium aparine; conditions: rated 4-5 weeks after treatment
In short: (§2)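 Rating at 4–5 wk post-spray on a 0–9 visual scale vs control. Application: aqueous acetone, ~0.0156–0.500 kg/ha, to soil surface after seeding, preemergence.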

SETVI (Foxtail, Green) = experiment: Preemergence herbicidal evaluation; type: in vivo, Setaria viridis; conditions: rated 4-5 weeks after treatment
In short: as §2

[3] = test system: GLXMAW (Soybean, Williams); experiment: Preemergence herbicidal evaluation; type: in vivo, Glycine max, (L.) Merr. cv Williams; conditions: rated 4-5 weeks after treatment
In short: as §2

ORYSAT (Rice, Tebonnet) [4] = experiment: Preemergence herbicidal evaluation; type: in vivo, Oryza sativa, (L.) Tebonnet; conditions: rated 4-5 weeks after treatment
In short: as §2

[5] = test system: TRZAWR (Wheat, Winter, cv Riband); experiment: Preemergence herbicidal evaluation; type: in vivo, Triticum aestivum; conditions: rated 4-5 weeks after treatment
In short: as §2

ZEAMX (Corn, Field) = experiment: Preemergence herbicidal evaluation; type: in vivo, Zea mays; conditions: rated 4-5 weeks after treatment
In short: as §2

CYPIR (Rice Flatsedge) = experiment: Preemergence weed control under flooded paddy conditions; type: in vivo, Cyperus iria; conditions: rated 3-4 weeks after treatment
In short: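 Seeds or propagules sown in top 0.5 cm of silt loam soil, flooded 1.5 to 3 cm above surface throughout. Compound in 50/50 v/v aqueous/acetone pipetted into flood water at about 0.0313 to 0.500 kg/ha. Visual 0-9 rating versus control after three to four weeks in greenhouse.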

MOOVA (Monochoria) = experiment: as above; type: in vivo, Monochoria vaginalis; conditions: rated 3-4 weeks after treatment
In short: (§3)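 Ratings on a 0-9 visual scale cover stand, vigor, malformation, size, chlorosis and overall appearance relative to a control, taken three to four weeks post-treatment. Application was into flood water over freshly sown silt loam at roughly 0.0313 to 0.500 kg/ha.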

[6] = test system: SAGPY (Arrowhead (Pygmaea)); experiment: as above; type: in vivo, Sagittaria pygmaea; conditions: rated 3-4 weeks after treatment
In short: as §3

CYPSE (Flatsedge) = experiment: Postemergence weed control under flooded paddy conditions; type: in vivo, Cyperus serotinus; conditions: postemergence weeds, 3-4 weeks after treatment
In short: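 With weeds 3 to 5 cm tall and rice at the 1.5 to 2.5 leaf stage, containers were flooded and water held 1.5 to 3 cm above soil. Compounds in 50/50 v/v aqueous/acetone went into the flood water at about 0.0313 to 0.500 kg/ha a.i. Effects were visually rated 0–9 against controls after three to four weeks in the greenhouse.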

## CCOC(=O)CN1C(=O)C(CC(=O)O)S/C1=N/c1cc(-n2c(=O)cc(C(F)(F)F)n(C)c2=O)c(F)cc1Cl (stereo not drawn) [Compound 16]
CASOB (Sicklepod); rate 0.0157 kg/ha
  CASOB herbicidal rating: 9.0
CASOB (Sicklepod); rate 0.0313 kg/ha
  CASOB herbicidal rating: 6.2
CASOB (Sicklepod); rate 0.0625 kg/ha
  CASOB herbicidal rating: 8.0
CASOB (Sicklepod); rate 0.1250 kg/ha
  CASOB herbicidal rating: 9.0
CASOB (Sicklepod); rate 0.2500 kg/ha
  CASOB herbicidal rating: 9.0
[1]; rate 0.0157 kg/ha
  CHEAL herbicidal rating: 9.0
[1]; rate 0.0313 kg/ha
  CHEAL herbicidal rating: 8.2
[1]; rate 0.0625 kg/ha
  CHEAL herbicidal rating: 9.0
[1]; rate 0.1250 kg/ha
  CHEAL herbicidal rating: 9.0
[1]; rate 0.2500 kg/ha
  CHEAL herbicidal rating: 9.0
ECHCG (Barnyardgrass); rate 0.0157 kg/ha
  ECHCG herbicidal rating: 3.0
ECHCG (Barnyardgrass); rate 0.0313 kg/ha
  ECHCG herbicidal rating: 8.8
ECHCG (Barnyardgrass); rate 0.0625 kg/ha
  ECHCG herbicidal rating: 9.0
ECHCG (Barnyardgrass); rate 0.1250 kg/ha
  ECHCG herbicidal rating: 9.0
ECHCG (Barnyardgrass); rate 0.2500 kg/ha
  ECHCG herbicidal rating: 9.0
ORYSAT (Rice, Tebonnet) [2]; rate 0.0157 kg/ha
  ORYSAT herbicidal rating: 3.0
ORYSAT (Rice, Tebonnet) [2]; rate 0.0313 kg/ha
  ORYSAT herbicidal rating: 4.2
ORYSAT (Rice, Tebonnet) [2]; rate 0.0625 kg/ha
  ORYSAT herbicidal rating: 5.7
ORYSAT (Rice, Tebonnet) [2]; rate 0.1250 kg/ha
  ORYSAT herbicidal rating: 7.3
ORYSAT (Rice, Tebonnet) [2]; rate 0.2500 kg/ha
  ORYSAT herbicidal rating: 7.5
GALAP (Galium); rate 0.0156 kg/ha
  GALAP preemergence herbicidal rating: 1.2
GALAP (Galium); rate 0.0313 kg/ha
  GALAP preemergence herbicidal rating: 2.0
GALAP (Galium); rate 0.0625 kg/ha
  GALAP preemergence herbicidal rating: 4.8
GALAP (Galium); rate 0.1250 kg/ha
  GALAP preemergence herbicidal rating: 6.4
GALAP (Galium); rate 0.2500 kg/ha
  GALAP preemergence herbicidal rating: 8.2
GALAP (Galium); rate 0.5000 kg/ha
  GALAP preemergence herbicidal rating: 9.0
SETVI (Foxtail, Green); rate 0.0156 kg/ha
  SETVI preemergence herbicidal rating: 0.2
SETVI (Foxtail, Green); rate 0.0313 kg/ha
  SETVI preemergence herbicidal rating: 1.0
SETVI (Foxtail, Green); rate 0.0625 kg/ha
  SETVI preemergence herbicidal rating: 3.7
SETVI (Foxtail, Green); rate 0.1250 kg/ha
  SETVI preemergence herbicidal rating: 7.5
SETVI (Foxtail, Green); rate 0.2500 kg/ha
  SETVI preemergence herbicidal rating: 8.5
SETVI (Foxtail, Green); rate 0.5000 kg/ha
  SETVI preemergence herbicidal rating: 8.9
[3]; rate 0.0156 kg/ha
  GLXMAW preemergence herbicidal rating: 0.5
[3]; rate 0.0313 kg/ha
  GLXMAW preemergence herbicidal rating: 0.7
[3]; rate 0.0625 kg/ha
  GLXMAW preemergence herbicidal rating: 1.5
[3]; rate 0.1250 kg/ha
  GLXMAW preemergence herbicidal rating: 4.5
[3]; rate 0.2500 kg/ha
  GLXMAW preemergence herbicidal rating: 7.7
[3]; rate 0.5000 kg/ha
  GLXMAW preemergence herbicidal rating: 9.0
ORYSAT (Rice, Tebonnet) [4]; rate 0.0156 kg/ha
  ORYSAT preemergence herbicidal rating: 0.1
ORYSAT (Rice, Tebonnet) [4]; rate 0.0313 kg/ha
  ORYSAT preemergence herbicidal rating: 0.3
ORYSAT (Rice, Tebonnet) [4]; rate 0.0625 kg/ha
  ORYSAT preemergence herbicidal rating: 1.0
ORYSAT (Rice, Tebonnet) [4]; rate 0.1250 kg/ha
  ORYSAT preemergence herbicidal rating: 2.2
ORYSAT (Rice, Tebonnet) [4]; rate 0.2500 kg/ha
  ORYSAT preemergence herbicidal rating: 4.3
ORYSAT (Rice, Tebonnet) [4]; rate 0.5000 kg/ha
  ORYSAT preemergence herbicidal rating: 6.4
[5]; rate 0.0156 kg/ha
  TRZAWR preemergence herbicidal rating: 0.1
[5]; rate 0.0313 kg/ha
  TRZAWR preemergence herbicidal rating: 0.5
[5]; rate 0.0625 kg/ha
  TRZAWR preemergence herbicidal rating: 0.5
[5]; rate 0.1250 kg/ha
  TRZAWR preemergence herbicidal rating: 0.8
[5]; rate 0.2500 kg/ha
  TRZAWR preemergence herbicidal rating: 2.6
[5]; rate 0.5000 kg/ha
  TRZAWR preemergence herbicidal rating: 5.8
ZEAMX (Corn, Field); rate 0.0156 kg/ha
  ZEAMX preemergence herbicidal rating: 0.1
ZEAMX (Corn, Field); rate 0.0313 kg/ha
  ZEAMX preemergence herbicidal rating: 0.6
ZEAMX (Corn, Field); rate 0.0625 kg/ha
  ZEAMX preemergence herbicidal rating: 1.4
ZEAMX (Corn, Field); rate 0.1250 kg/ha
  ZEAMX preemergence herbicidal rating: 1.8
ZEAMX (Corn, Field); rate 0.2500 kg/ha
  ZEAMX preemergence herbicidal rating: 3.7
ZEAMX (Corn, Field); rate 0.5000 kg/ha
  ZEAMX preemergence herbicidal rating: 6.0
CYPIR (Rice Flatsedge); 0.0313 kg/ha
  Herbicidal rating CYPIR: 0.0
CYPIR (Rice Flatsedge); 0.0625 kg/ha
  Herbicidal rating CYPIR: 0.0
CYPIR (Rice Flatsedge); 0.1250 kg/ha
  Herbicidal rating CYPIR: 4.0
CYPIR (Rice Flatsedge); 0.2500 kg/ha
  Herbicidal rating CYPIR: 9.0
MOOVA (Monochoria); 0.0313 kg/ha
  Herbicidal rating MOOVA: 9.0
MOOVA (Monochoria); 0.0625 kg/ha
  Herbicidal rating MOOVA: 9.0
MOOVA (Monochoria); 0.1250 kg/ha
  Herbicidal rating MOOVA: 9.0
MOOVA (Monochoria); 0.2500 kg/ha
  Herbicidal rating MOOVA: 3.0
[6]; 0.0313 kg/ha
  Herbicidal rating SAGPY: 0.0
[6]; 0.0625 kg/ha
  Herbicidal rating SAGPY: 0.0
[6]; 0.1250 kg/ha
  Herbicidal rating SAGPY: 0.0
[6]; 0.2500 kg/ha
  Herbicidal rating SAGPY: 0.0
CYPSE (Flatsedge); rate 0.0313 kg/ha
  Herbicidal rating CYPSE: 0.0
CYPSE (Flatsedge); rate 0.0625 kg/ha
  Herbicidal rating CYPSE: 0.0
CYPSE (Flatsedge); rate 0.1250 kg/ha
  Herbicidal rating CYPSE: 0.0
CYPSE (Flatsedge); rate 0.2500 kg/ha
  Herbicidal rating CYPSE: 0.0

## CCOC(=O)CN1C(=O)C(=Cc2ccccc2)SC1=Nc1cc(-n2c(=O)cc(C(F)(F)F)n(C)c2=O)c(F)cc1Cl [Compound 19, Ethyl 5-benzylidene-2-{{2-chloro-5-[3,6-dihydro-3-methyl-2,6-dioxo-4-(trifluoromethyl)-1(2H)-pyrimidinyl]-4-fluorophenyl}imino}-4-oxo-3-thiazolidineacetate]
CASOB (Sicklepod); rate 0.0158 kg/ha
  CASOB herbicidal rating: 0.0
CASOB (Sicklepod); rate 0.0315 kg/ha
  CASOB herbicidal rating: 1.0
CASOB (Sicklepod); rate 0.0630 kg/ha
  CASOB herbicidal rating: 1.0
[1]; rate 0.0158 kg/ha
  CHEAL herbicidal rating: 3.0
[1]; rate 0.0315 kg/ha
  CHEAL herbicidal rating: 7.0
[1]; rate 0.0630 kg/ha
  CHEAL herbicidal rating: 9.0
ECHCG (Barnyardgrass); rate 0.0158 kg/ha
  ECHCG herbicidal rating: 1.0
ECHCG (Barnyardgrass); rate 0.0315 kg/ha
  ECHCG herbicidal rating: 2.0
ECHCG (Barnyardgrass); rate 0.0630 kg/ha
  ECHCG herbicidal rating: 2.0
ORYSAT (Rice, Tebonnet) [2]; rate 0.0158 kg/ha
  ORYSAT herbicidal rating: 1.5
ORYSAT (Rice, Tebonnet) [2]; rate 0.0315 kg/ha
  ORYSAT herbicidal rating: 2.0
ORYSAT (Rice, Tebonnet) [2]; rate 0.0630 kg/ha
  ORYSAT herbicidal rating: 2.5
GALAP (Galium); rate 0.1250 kg/ha
  GALAP preemergence herbicidal rating: 0.0
GALAP (Galium); rate 0.2500 kg/ha
  GALAP preemergence herbicidal rating: 0.0
SETVI (Foxtail, Green); rate 0.1250 kg/ha
  SETVI preemergence herbicidal rating: 0.0
SETVI (Foxtail, Green); rate 0.2500 kg/ha
  SETVI preemergence herbicidal rating: 0.0
[3]; rate 0.1250 kg/ha
  GLXMAW preemergence herbicidal rating: 0.0
[3]; rate 0.2500 kg/ha
  GLXMAW preemergence herbicidal rating: 0.0
ORYSAT (Rice, Tebonnet) [4]; rate 0.1250 kg/ha
  ORYSAT preemergence herbicidal rating: 0.0
ORYSAT (Rice, Tebonnet) [4]; rate 0.2500 kg/ha
  ORYSAT preemergence herbicidal rating: 0.0
[5]; rate 0.1250 kg/ha
  TRZAWR preemergence herbicidal rating: 0.0
[5]; rate 0.2500 kg/ha
  TRZAWR preemergence herbicidal rating: 0.0
ZEAMX (Corn, Field); rate 0.1250 kg/ha
  ZEAMX preemergence herbicidal rating: 0.0
ZEAMX (Corn, Field); rate 0.2500 kg/ha
  ZEAMX preemergence herbicidal rating: 0.0
CYPIR (Rice Flatsedge); 0.1160 kg/ha
  Herbicidal rating CYPIR: 0.0
CYPIR (Rice Flatsedge); 0.2310 kg/ha
  Herbicidal rating CYPIR: 0.0
CYPIR (Rice Flatsedge); 0.4630 kg/ha
  Herbicidal rating CYPIR: 0.0
MOOVA (Monochoria); 0.1160 kg/ha
  Herbicidal rating MOOVA: 9.0
MOOVA (Monochoria); 0.2310 kg/ha
  Herbicidal rating MOOVA: 9.0
MOOVA (Monochoria); 0.4630 kg/ha
  Herbicidal rating MOOVA: 9.0
[6]; 0.1160 kg/ha
  Herbicidal rating SAGPY: 0.0
[6]; 0.2310 kg/ha
  Herbicidal rating SAGPY: 3.0
[6]; 0.4630 kg/ha
  Herbicidal rating SAGPY: 3.0
CYPSE (Flatsedge); rate 0.1160 kg/ha
  Herbicidal rating CYPSE: 4.0
CYPSE (Flatsedge); rate 0.2310 kg/ha
  Herbicidal rating CYPSE: 4.0
CYPSE (Flatsedge); rate 0.4630 kg/ha
  Herbicidal rating CYPSE: 4.0
